Test results published in patent US8637509B2, “Azaindazoles” (GlaxoSmithKline LLC, priority 2010, dated 2014).

Biological target: T1, EZH2 (Homo sapiens, UniProt Q15910)
T1 construct: GRITS37108
Assay: EZH2 methyltransferase SPA assay (3H-SAM, Hela nucleosomes)
Assay type: biochemical
Settings: read-out: IC50

T1 sequence (Q15910 whole entry): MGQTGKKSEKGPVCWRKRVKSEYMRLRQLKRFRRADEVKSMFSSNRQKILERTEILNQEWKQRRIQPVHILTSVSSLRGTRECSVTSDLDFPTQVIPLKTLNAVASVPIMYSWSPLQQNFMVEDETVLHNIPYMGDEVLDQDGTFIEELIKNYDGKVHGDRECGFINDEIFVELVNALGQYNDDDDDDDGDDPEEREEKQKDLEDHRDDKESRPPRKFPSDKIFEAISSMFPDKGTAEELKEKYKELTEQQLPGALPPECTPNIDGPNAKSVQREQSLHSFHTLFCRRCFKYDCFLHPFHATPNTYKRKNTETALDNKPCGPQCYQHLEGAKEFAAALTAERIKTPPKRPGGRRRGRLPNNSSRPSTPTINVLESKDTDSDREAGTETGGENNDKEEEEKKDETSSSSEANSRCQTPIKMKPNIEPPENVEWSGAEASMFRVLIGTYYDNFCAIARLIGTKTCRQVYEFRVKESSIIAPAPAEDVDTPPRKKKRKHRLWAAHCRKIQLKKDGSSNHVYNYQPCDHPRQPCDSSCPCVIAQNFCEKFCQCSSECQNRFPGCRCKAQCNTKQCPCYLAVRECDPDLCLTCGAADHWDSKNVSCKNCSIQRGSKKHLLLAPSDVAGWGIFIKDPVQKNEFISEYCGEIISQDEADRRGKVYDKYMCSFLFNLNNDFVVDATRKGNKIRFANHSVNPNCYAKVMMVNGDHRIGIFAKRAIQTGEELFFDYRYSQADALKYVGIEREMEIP
T1 sequence (O75530 whole entry partner): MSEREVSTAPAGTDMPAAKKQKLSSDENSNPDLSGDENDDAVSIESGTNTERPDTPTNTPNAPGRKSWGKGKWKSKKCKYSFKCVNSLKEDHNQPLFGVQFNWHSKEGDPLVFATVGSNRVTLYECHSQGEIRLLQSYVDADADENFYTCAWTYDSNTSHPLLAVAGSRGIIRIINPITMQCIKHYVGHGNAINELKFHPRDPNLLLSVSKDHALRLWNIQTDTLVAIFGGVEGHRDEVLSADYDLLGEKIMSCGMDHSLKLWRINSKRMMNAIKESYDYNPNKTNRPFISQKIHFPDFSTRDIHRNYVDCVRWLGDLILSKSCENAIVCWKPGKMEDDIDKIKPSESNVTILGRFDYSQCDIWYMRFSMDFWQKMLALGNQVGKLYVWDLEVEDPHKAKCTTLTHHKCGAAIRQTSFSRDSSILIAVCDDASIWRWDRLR
T1 sequence (Q15022 whole entry partner): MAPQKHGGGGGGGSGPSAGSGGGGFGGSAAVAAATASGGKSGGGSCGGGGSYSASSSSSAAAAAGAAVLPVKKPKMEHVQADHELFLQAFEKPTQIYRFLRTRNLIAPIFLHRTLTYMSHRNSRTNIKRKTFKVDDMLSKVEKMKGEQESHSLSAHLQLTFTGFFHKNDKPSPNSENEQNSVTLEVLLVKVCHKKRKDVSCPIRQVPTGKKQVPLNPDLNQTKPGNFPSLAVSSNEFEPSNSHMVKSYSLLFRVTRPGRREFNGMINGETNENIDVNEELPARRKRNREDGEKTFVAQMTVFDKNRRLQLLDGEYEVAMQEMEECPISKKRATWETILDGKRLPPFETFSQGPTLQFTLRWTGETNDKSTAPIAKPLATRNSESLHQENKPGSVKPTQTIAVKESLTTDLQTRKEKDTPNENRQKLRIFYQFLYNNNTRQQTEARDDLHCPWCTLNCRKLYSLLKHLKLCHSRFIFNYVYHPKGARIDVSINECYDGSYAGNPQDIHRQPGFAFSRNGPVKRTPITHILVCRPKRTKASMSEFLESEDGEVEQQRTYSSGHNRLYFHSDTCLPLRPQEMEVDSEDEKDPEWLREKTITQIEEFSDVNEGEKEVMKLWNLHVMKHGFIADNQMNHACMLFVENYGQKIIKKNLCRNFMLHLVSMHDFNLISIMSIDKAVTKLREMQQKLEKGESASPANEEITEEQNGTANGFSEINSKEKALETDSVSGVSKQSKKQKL

SMILES	IC50 [nM]
Cc1cc(C)c(CNC(=O)c2cc(-c3ccc(N4CCOCC4)nc3)nc3c2cnn3C(C)C)c(=O)[nH]1 [Ex 67, N-[(4,6-Dimethyl-2-oxo-1,2-dihydro-3-pyridinyl)methyl]-1-(1-methylethyl)-6-[6-(4-morpholinyl)-3-pyridinyl]-1H-pyrazolo[3,4-b]pyridine-4-carboxamide]	58
COc1ccc(-c2cc(C(=O)NCc3c(C)cc(C)[nH]c3=O)c3cnn(C(C)C)c3n2)cn1 [Ex 68, N-[(4,6-Dimethyl-2-oxo-1,2-dihydro-3-pyridinyl)methyl]-1-(1-methylethyl)-6-[6-(methyloxy)-3-pyridinyl]-1H-pyrazolo[3,4-b]pyridine-4-carboxamide]	76
CC(=O)Nc1ccc(-c2cc(C(=O)NCc3c(C)cc(C)[nH]c3=O)c3cnn(C(C)C)c3n2)cn1 [Ex 69, 6-[6-(Acetylamino)-3-pyridinyl]-N-[(4,6-dimethyl-2-oxo-1,2-dihydro-3-pyridinyl)methyl]-1-(1-methylethyl)-1H-pyrazolo[3,4-b]pyridine-4-carboxamide]	25
Cc1cc(C)c(CNC(=O)c2cc(-c3ccccc3C)nc3c2cnn3C(C)C)c(=O)[nH]1 [Ex 70, N-[(4,6-Dimethyl-2-oxo-1,2-dihydro-3-pyridinyl)methyl]-1-(1-methylethyl)-6-(2-methylphenyl)-1H-pyrazolo[3,4-b]pyridine-4-carboxamide]	1890
Cc1cc(C)c(CNC(=O)c2cc(-c3cn[nH]c3)nc3c2cnn3C(C)C)c(=O)[nH]1 [Ex 71, N-[(4,6-Dimethyl-2-oxo-1,2-dihydro-3-pyridinyl)methyl]-1-(1-methylethyl)-6-(1H-pyrazol-4-yl)-1H-pyrazolo[3,4-b]pyridine-4-carboxamide]	402
Cc1cc(C)c(CNC(=O)c2cc(-c3cnc(N)nc3)nc3c2cnn3C(C)C)c(=O)[nH]1 [Ex 72, 6-(2-Amino-5-pyrimidinyl)-N-[(4,6-dimethyl-2-oxo-1,2-dihydro-3-pyridinyl)methyl]-1-(1-methylethyl)-1H-pyrazolo[3,4-b]pyridine-4-carboxamide]	171
Cc1cc(C)c(CNC(=O)c2cc(-c3cccnc3)nc3c2cnn3C(C)C)c(=O)[nH]1 [Ex 73, N-[(4,6-Dimethyl-2-oxo-1,2-dihydro-3-pyridinyl)methyl]-1-(1-methylethyl)-6-(3-pyridinyl)-1H-pyrazolo[3,4-b]pyridine-4-carboxamide]	533
Cc1cc(C)c(CNC(=O)c2cc(-c3ccc4[nH]ncc4c3)nc3c2cnn3C(C)C)c(=O)[nH]1 [Ex 74, N-[(4,6-Dimethyl-2-oxo-1,2-dihydro-3-pyridinyl)methyl]-6-(1H-indazol-5-yl)-1-(1-methylethyl)-1H-pyrazolo[3,4-b]pyridine-4-carboxamide]	151
Cc1cc(C)c(CNC(=O)c2cc(-c3ccc4cn[nH]c4c3)nc3c2cnn3C(C)C)c(=O)[nH]1 [Ex 75, N-[(4,6-Dimethyl-2-oxo-1,2-dihydro-3-pyridinyl)methyl]-6-(1H-indazol-6-yl)-1-(1-methylethyl)-1H-pyrazolo[3,4-b]pyridine-4-carboxamide]	131
Cc1cc(C)c(CNC(=O)c2cc(-c3ccc4[nH]nnc4c3)nc3c2cnn3C(C)C)c(=O)[nH]1 [Ex 76, 6-(1H-1,2,3-Benzotriazol-5-yl)-N-[(4,6-dimethyl-2-oxo-1,2-dihydro-3-pyridinyl)methyl]-1-(1-methylethyl)-1H-pyrazolo[3,4-b]pyridine-4-carboxamide]	82
Cc1cc(C)c(CNC(=O)c2cc(-c3ccc4[nH]c(=O)[nH]c4c3)nc3c2c(C)nn3C(C)C)c(=O)[nH]1 [Ex 77, N-[(4,6-dimethyl-2-oxo-1,2-dihydro-3-pyridinyl)methyl]-3-methyl-1-(1-methylethyl)-6-(2-oxo-2,3-dihydro-1H-benzimidazol-5-yl)-1H-pyrazolo[3,4-b]pyridine-4-carboxamide]	52
Cc1cc(C)c(CNC(=O)c2cc(-c3ccc4c(c3)NC(=O)C4)nc3c2cnn3C(C)C)c(=O)[nH]1 [Ex 78, N-[(4,6-Dimethyl-2-oxo-1,2-dihydro-3-pyridinyl)methyl]-1-(1-methylethyl)-6-(2-oxo-2,3-dihydro-1H-indol-6-yl)-1H-pyrazolo[3,4-b]pyridine-4-carboxamide]	43
Cc1cc(C)c(CNC(=O)c2cc(-c3ccc4c(c3)CC(=O)N4)nc3c2cnn3C(C)C)c(=O)[nH]1 [Ex 79, N-[(4,6-Dimethyl-2-oxo-1,2-dihydro-3-pyridinyl)methyl]-1-(1-methylethyl)-6-(2-oxo-2,3-dihydro-1H-indol-5-yl)-1H-pyrazolo[3,4-b]pyridine-4-carboxamide]	140
Cc1cc(C)c(CNC(=O)c2cc(-c3ccc4[nH]c(=O)[nH]c4c3)nc3c2cnn3C(C)C)c(=O)[nH]1 [Ex 80, N-[(4,6-Dimethyl-2-oxo-1,2-dihydro-3-pyridinyl)methyl]-1-(1-methylethyl)-6-(2-oxo-2,3-dihydro-1H-benzimidazol-5-yl)-1H-pyrazolo[3,4-b]pyridine-4-carboxamide]	71
Cc1cc(C)c(CNC(=O)c2cc(-c3ccc(N4CCOCC4)nc3)nc3c2c(C)nn3C(C)C)c(=O)[nH]1 [Ex 83, N-[(4,6-Dimethyl-2-oxo-1,2-dihydro-3-pyridinyl)methyl]-3-methyl-1-(1-methylethyl)-6-[6-(4-morpholinyl)-3-pyridinyl]-1H-pyrazolo[3,4-b]pyridine-4-carboxamide]	43
Cc1cc(C)c(CNC(=O)c2cc(Nc3ccncc3)nc3c2cnn3C(C)C)c(=O)[nH]1 [Ex 84, N-[(4,6-Dimethyl-2-oxo-1,2-dihydro-3-pyridinyl)methyl]-1-(1-methylethyl)-6-(4-pyridinylamino)-1H-pyrazolo[3,4-b]pyridine-4-carboxamide]	99
Cc1cc(C)c(CNC(=O)c2cc(Nc3ccc4[nH]c(=O)[nH]c4c3)nc3c2cnn3C(C)C)c(=O)[nH]1 [Ex 85, N-[(4,6-Dimethyl-2-oxo-1,2-dihydro-3-pyridinyl)methyl]-1-(1-methylethyl)-6-[(2-oxo-2,3-dihydro-1H-benzimidazol-5-yl)amino]-1H-pyrazolo[3,4-b]pyridine-4-carboxamide]	31
Cc1cc(C)c(CNC(=O)c2cc(-c3ccc(N4CCN(C)CC4)nc3)nc3c2c(C)nn3C(C)(C)C)c(=O)[nH]1 [Ex 87, 1-(1,1-Dimethylethyl)-N-[(4,6-dimethyl-2-oxo-1,2-dihydro-3-pyridinyl)methyl]-3-methyl-6-[6-(4-methyl-1-piperazinyl)-3-pyridinyl]-1H-pyrazolo[3,4-b]pyridine-4-carboxamide]	18
Cc1cc(C)c(CNC(=O)c2cc(-c3ccc4[nH]c(=O)[nH]c4c3)nc3c2c(C)nn3C(C)(C)C)c(=O)[nH]1 [Ex 88, 1-(1,1-Dimethylethyl)-N-[(4,6-dimethyl-2-oxo-1,2-dihydro-3-pyridinyl)methyl]-3-methyl-6-(2-oxo-2,3-dihydro-1H-benzimidazol-5-yl)-1H-pyrazolo[3,4-b]pyridine-4-carboxamide]	52
Cc1cc(C)c(CNC(=O)c2cc(-c3ccc(N4CCOCC4)nc3)nc3c2c(C)nn3C(C)(C)C)c(=O)[nH]1 [Ex 89, 1-(1,1-Dimethylethyl)-N-[(4,6-dimethyl-2-oxo-1,2-dihydro-3-pyridinyl)methyl]-3-methyl-6-[6-(4-morpholinyl)-3-pyridinyl]-1H-pyrazolo[3,4-b]pyridine-4-carboxamide]	67
Cc1cc(C)c(CNC(=O)c2cc(-c3ccc4nonc4c3)nc3c2c(C)nn3C(C)C)c(=O)[nH]1 [Ex 90, 6-(2,1,3-Benzoxadiazol-5-yl)-N-[(4,6-dimethyl-2-oxo-1,2-dihydro-3-pyridinyl)methyl]-3-methyl-1-(1-methylethyl)-1H-pyrazolo[3,4-b]pyridine-4-carboxamide]	173
CNS(=O)(=O)c1ccc(-c2cc(C(=O)NCc3c(C)cc(C)[nH]c3=O)c3c(C)nn(C(C)C)c3n2)cc1 [Ex 92, N-[(4,6-Dimethyl-2-oxo-1,2-dihydro-3-pyridinyl)methyl]-3-methyl-6-{4-[(methylamino)sulfonyl]phenyl}-1-(1-methylethyl)-1H-pyrazolo[3,4-b]pyridine-4-carboxamide]	76
CC(=O)Nc1ccc(-c2cc(C(=O)NCc3c(C)cc(C)[nH]c3=O)c3c(C)nn(C(C)C)c3n2)cc1 [Ex 93, 6-[4-(Acetylamino)phenyl]-N-[(4,6-dimethyl-2-oxo-1,2-dihydro-3-pyridinyl)methyl]-3-methyl-1-(1-methylethyl)-1H-pyrazolo[3,4-b]pyridine-4-carboxamide]	83
Cc1cc(C)c(CNC(=O)c2cc(-c3ccc(C(N)=O)cc3)nc3c2cnn3C(C)C)c(=O)[nH]1 [Ex 94, 6-[4-(Aminocarbonyl)phenyl]-N-[(4,6-dimethyl-2-oxo-1,2-dihydro-3-pyridinyl)methyl]-1-(1-methylethyl)-1H-pyrazolo[3,4-b]pyridine-4-carboxamide]	103
Cc1cc(C)c(CNC(=O)c2cc(NCCNc3ccccn3)nc3c2cnn3C(C)C)c(=O)[nH]1 [Ex 95, N-[(4,6-Dimethyl-2-oxo-1,2-dihydro-3-pyridinyl)methyl]-1-(1-methylethyl)-6-{[2-(2-pyridinylamino)ethyl]amino}-1H-pyrazolo[3,4-b]pyridine-4-carboxamide]	489
Cc1cc(C)c(CNC(=O)c2cc(-c3cnc4c(c3)CCC(=O)N4)nc3c2cnn3C(C)C)c(=O)[nH]1 [Ex 96, N-[(4,6-Dimethyl-2-oxo-1,2-dihydro-3-pyridinyl)methyl]-1-(1-methylethyl)-6-(7-oxo-1,5,6,7-tetrahydro-1,8-naphthyridin-3-yl)-1H-pyrazolo[3,4-b]pyridine-4-carboxamide]	57
CNS(=O)(=O)c1ccc(-c2cc(C(=O)NCc3c(C)cc(C)[nH]c3=O)c3cnn(C(C)C)c3n2)cn1 [Ex 97, N-[(4,6-Dimethyl-2-oxo-1,2-dihydro-3-pyridinyl)methyl]-6-{6-[(methylamino)sulfonyl]-3-pyridinyl}-1-(1-methylethyl)-1H-pyrazolo[3,4-b]pyridine-4-carboxamide]	55
Cc1cc(C)c(CNC(=O)c2cc(C3CC3)nc3c2cnn3CCNS(C)(=O)=O)c(=O)[nH]1 [Ex 99, 6-Cyclopropyl-N-[(4,6-dimethyl-2-oxo-1,2-dihydro-3-pyridinyl)methyl]-1-{2-[(methylsulfonyl)amino]ethyl}-1H-pyrazolo[3,4-b]pyridine-4-carboxamide]	25000
